Consider 1 compound from patent publication US11590110B2, “Compositions and methods for reactivating latent immunodeficiency virus using a GSK-3 inhibitor” (priority 2017, dated 2023).

Each structure is given as a SMILES string. Read-outs that look alike come from different tables or passages of the source.

The conditions of data set [1]: cited from earlier work.
In data set [2] the test system is CD4+ T cells. Nature of the data set: Example 5: surface expression of activation markers CD69 and CD25, flow cytometry. Type of data set: cell-based, human. The note with it: 48 hours. Here is the method: (§1) Freshly isolated PBMCs or CD4^+ T cells were stained for viability, using the fixable viability dye Zombie violet (1:50, Biolegend) according to the manufacturer's recommendation. Surface staining was performed with the following antibodies at 1:100 dilutions: CD3-PE-Cy7, CD4-APC-Cy7, CD69-FITC, CD25-PE (all 1:100, Biolegend), and Glut-1-Ax647 (BD Bioscience, 566580) in staining buffer for 20 min on ice and cells were fixed in 1% PFA-containing PBS. All flow analysis was performed on the LSRII (BD Biosciences) using FlowJo software (v.10.4.2). Color compensations were performed using single-stained samples for each of the fluorochromes used. Data were analyzed using FlowJo software (TreeStar, San Carlos, Calif.).

Data set [3] deals with NK cells. In words: Example 5: NK cell viability and cytotoxic effector functions. Type of data set: cell-based, human. Here is the method:
Density centrifugation using a Ficoll-Hypaqua gradient was performed to purify PBMCs from continuous-flow centrifugation leukapheresis product. Subsequently, cells were plated in 96-well U-bottom plated in complete RPMI, which was supplemented with 10 ng/ml recombinant IL-15 (R&D systems), treated with LRAs or vehicle controls (DMSO) and incubated at 37° C., 5% CO2 for 48 h. To assay NK cell functionality, cells were analyzed by flow cytometry. Briefly, 1×10^6 cells/200 ul were stained with FITC anti-CD107 antibodies (1:50, BD Biosciences), mixed with 1×10^5 K562 cells and incubated at 37° C., 5% CO2 for 1 h. Then, in order to enhance intracellular cytokine staining, protein transport was blocked with Brefeldin A (Sigma-Aldrich) and golgi stop (BD Biosciences) according to the manufacturer instructions and the cells were incubated at 37° C., 5% CO2 for another 5 h. Afterwards, cells were spun down (5 min, 330×g, RT), the supernatant was removed and the cells were stained using Zombie violet (1:50, Biolegend) according to the manufacturer protocol. Subsequently, cells were stained for surface proteins staining with the following antibodies: APC/Cy7 anti CD3 (1:100, Biolegend), APC anti CD14 (1:100, Biolegend), APC anti CD19 (1:100, Biolegend), PE/Cy7 anti CD56 (1:100, BD Biosciences), Alexa Fluor 700 anti CD16 (1:100, Biolegend), PE anti CD7 (1:50, Thermo Fisher Scientific) for 15 min at room temperature. Next, cells were permeabilized and fixed using the Foxp3/Transcription Factor Fixation/Permeabilization Concentrate and Diluent kit (eBioscience) and stained intracellularly with PerCP/Cy5 anti IFN-γ (1:50, BD Bioscience) in FOXP3 perm/wash buffer for 1 h at 4° C. Finally, cells were washed and fixed in 1% paraformaldehyde/PBS, and subjected to flow cytometry analysis on a LSRII (BD Biosciences). Data were obtained using FlowJo software (Treestar). Samples were gated for singlets, live, CD3 negative, CD14/CD19 negative and CD7 positive cells as previously described (York, Milush). CD16high/CD56dim, CD16dim/CD56high cells were considered for analysis of IFN-γ and CD107a positivity. All gates were defined, based on fluorescence minus one (FMO) samples.

The test system of data set [4] is CD8+ T cells. Nature of the data set: Example 5: CD8 T-cell viability and cytotoxic effector functions. Type of data set: cell-based, human. How it is done:
After drug treatment, human PBMCs were cultured in complete RPMI in the presence of CD107a-BV650 (1:50, 328637, BioLegend) or CD107a-FITC antibodies (1:50, 555800, BD Bioscience) and PMA/ionomycin (50 ng/ml and 1 uM) dor 3.5 hours, adding Brefeldin A and Monensin (eBioscience) for the last hour. Cells were subsequently stained for viability using the viability dyes eFluor 506, (eBioscience) according to the provided protocol. After surface marker staining with the following antibodies (all at 1:100 dilution): CD3-APC-H7 (560176; BD Biosciences), CD8-V450 (560347; BD Biosciences), CD45RA-APC (17-0458; eBioscience), and CCR7-PE-Cy7 (557648; BD Biosciences), cells were permeabilized and fixed using the Foxp3/Transcription Factor Fixation/Permeabilization Concentrate and Diluent kit (eBioscience). Intracellular staining was performed with IFN-γ-PerCP-Cy5.5 antibody (1:100, 560704, BD Bioscience) in FOXP3 perm/wash buffer for 1 h at 4° C. After washing and fixation of the cells in 1% paraformaldehyde/PBS, cells were analyzed by flow cytometry. Final data stems from having gated on CD8hi- and CD8lo-expressing T cells.

In data set [5] the test system is CD4+ T cells. Nature of the data set: Example 5: GLUT1 surface expression, flow cytometry. Format: cell-based, human. Particulars: 2 or 24 hours; 1 μM tideglusib; CD4+ T cells of three HIV-negative donors. How it is done:
as §1
Changes to the metabolism of resting CD4^+ T-cells by tideglusib were studied. […] […].
On the technique in general: Flow cytometry measures light scatter and fluorescence of single cells or particles in a stream.

The subject of data set [6] is HIV-specific CD8+ T cells. Nature of the data set: Example 5: granzyme B cytotoxicity assay and infected CD4+ T-cell elimination (ICE). Format: cell-based, human. Particulars: 1 μM for 6 days. Here is the method:
PBMCs were co-incubated with HIVSF162-infected autologous CD4^+ T-cell targets (E:T 25:1)+/−tideglusib at a final concentration of […] in 96 deep (1 mL) well plates for 6 days. As before, cultured day 6 cells were then labeled with immuno-magnetic beads (CD8 T-cell Isolation Kit II, Miltenyi Biotec) prior to negative selection of CD8^+ T-cells by magnetic automated cell sorting (ref Migueles et al., 2008, 2009). Cytotoxic responses were measured against LIVE/DEAD Fixable Violet Stain (Molecular Probes, Invitrogen Detection Technologies, Eugene, Oreg., USA)-labeled HIVSF162-infected or uninfected autologous CD4^+ T-cell targets in assays examining GrB target cell activity and infected CD4^+ T-cell elimination (ICE) as previously reported (ref Migueles et al., 2008, 2009). Cells were analyzed on a FACSAria multi-laser cytometer (Becton-Dickinson) with FACSDiva software. Gates were drawn on labeled CD4^+ T-cell targets and 5,000-15,000 events were collected. Color compensations were performed using single-stained samples for each of the fluorochromes used. Data were analyzed using FlowJo software (TreeStar, San Carlos, Calif.).

[7] abbreviates: pre-treatment 1 μM 48 hours, then K562 cells.
[8] abbreviates: pre-treatment 1 μM 48 hours, then PMA/ionomycin.

In the case of `O=c1sn(-c2cccc3ccccc23)c(=O)n1Cc1ccccc1` [Tideglusib, 4-benzyl-2-(naphthalen-1-yl)-1,2,4-thiadiazolidine-3,5-dione], in data set [1], the “side effects / tolerability in humans” value was “safe (i.e., non-toxic) and well tolerated in humans”. Also, the “side effects / tolerability in humans” value in data set [1] (listed as tideglusib) is recorded as “very low incidence of side-effects”. Also, in data set [1] (prolonged treatment), the “moderate, asymptomatic and fully reversible increase of transaminase, share of cases” value was 30%. Moreover, the “surface expression of the activation markers CD69 or CD25” value in data set [2] is given as “no increase”. Also, in data set [3] (48 hours), the “viability of NK cells” value was “did not reduce viability”. In addition, in data set [3] (setting [7]), the “IFN-γ production in NK cells” value was “increase in IFN-γ production” and the “increase of surface expression of CD107a in NK cells” value is “less marked”. Also, the “viability of CD8+ T cells” value in data set [4] (48 hours) is reported as “did not reduce viability”. Moreover, in data set [4] (setting [8]), the “IFN-γ production in CD8+ T cells” value is “increase in IFN-γ production” and the “surface expression of CD107a in CD8+ T cells” value is reported as “increased surface expression of CD107a”. For the same compound, the “GLUT1 surface expression over the untreated control” value in data set [5] is recorded as “did not increase GLUT1 surface expression”. Moreover, the “CD8+ T-mediated infected CD4+ T-cell elimination (ICE)” value in data set [6] (1 hour with infected CD4+ T targets) is “did not alter production of granzyme B (GrB) or prevent CD8^+ T-mediated infected CD4^+ T-cell elimination (ICE)”. Also, the “production of granzyme B (GrB)” value in data set [6] (PBMCs of HIV-positive progressors) is “did not alter production of granzyme B”.
